Experimental data as given in patent publication US4363812A, “3-(Tetrazol-5-yl), 4-methyl-8-alkoxy coumarins and anti-allergic compositions thereof” (priority 1978, dated 1982).
Read-outs that look alike come from different tables or passages of the source.

Assays:
[1] = tested on: passive cutaneous anaphylaxis (PCA) mediated by homocytotropic antibodies (HTA); experiment: passive cutaneous anaphylaxis (PCA) test, oral, in rats; type: in vivo, rat (Wistar); conditions: Rattus norvegicus
Protocol: With respect to the present 3-(1H-tetrazol-5-yl)coumarin derivatives, there was tested antiallergic activity concerning passive cutaneous anaphylaxis (PCA) mediated by homocytotropic antibodies (HTA) in rats.
(i) Preparation of antisera
2,4-Dinitrophenyl-coupled ascaris extract (DNP-As) used as antigen, was prepared according to the methods of Strejan et al [cf. J. Immunol., Vol. 98, 893(1967)] and Eisen [cf. J. Amer. Chem. Soc., Vol. 75. 4593(1953)]. Antisera containing HTA were prepared in rats according to the method of Tada and Okumura [cf. J. Immunol., Vol. 106, 1002(1971)] as follows:
Female wister rats weighing 180 to 200 g. were splenectomized and several days later immunized by injecting into all four footpads a total of 1 mg. of DNP-As mixed with 10^10 Bordetella pertussis. After 5 days, 0.5 mg. of DNP-As alone was injected subcutaneously into the back of rats. Eight days after the first immunization, blood was collected by aortic puncture under ether anaesthesea and antisera obtained by these procedures were pooled and stored at -80° C.
The titer of the pooled autiserum was determined in rats by the 72 hr. PCA which method was described in the following item (ii), i.e. the highest dilution of antiserum producing a diameter of approximately 5 mm. was usually 1:500.
(ii) Assessment of PCA in rats
Normal wister rats weighing 140 to 160 g. were sensitized passively by injection intradermal on the shaved back skin 0.05 ml. of the diluted antisera (1:30). After 72 hours, the animals were injected intravenously 1 ml. of physiological salt solution containing 2 mg. DNP-As and 2.5 mg. Evans' blue.
The present compounds to be tested were given orally 30 minutes before antigen challenge. The animals were exsanguinated 30 minutes after challenge with the antigens and the skins were exfoliated. The intensities of PCA were evaluated by measuring the amount of leaked dye. The amount of dye leaked as a result of PCA was extracted according to the method of Harada et al [cf. Jpn. J. Allergol., Vol. 15, 1(1966)] and measured photometrically.

[2] = acute toxicity, oral, in mice; type: in vivo; conditions: mouse, in vivo, po
Protocol: Moreover, the introduction of substituent groups such as an alkoxyl group, an alkenyloxy group and hydroxyl group to the 5, 6, 7 or 8 position of the coumarin ring brings the decrease of toxicity.
With respect to the present 3-(1H-tetrazol-5-yl)coumarin derivatives, there was tested acute toxicity in mice.
After normal female Slc: ddy mice 4 weeks old were purchased and fed preliminarily in this lavoratory for a week, these mice weighing 25-27 g. were used in the test. The present compounds to be tested, were suspended in a 10% gum arabic solution and administered orally […]. body weight to mice. Each dose level was given to a group of ten animals and the survivors were kept under observation for 6 days. The numbers of dead animals were counted and the LD50 values in mg./kg. body weight were calculated by the method of Litchfield-Wilcoxon.

experimental asthma = experiment: model of experimental asthma in animals; type: in vivo; conditions: oral administration
[3] = Table 3, oral 30 minutes before antigen challenge, rats, lowest dose significantly decreasing leaked dye vs control, read-out: MED (minimum effect dose)
[4] = Table 4, oral, female Slc: ddy mice, 6 days observation, Litchfield-Wilcoxon, read-out: LD50
[5] = po, read-out: MED (minimum effective dose)
[6] = read-out: MED (minimum effect dose)
[7] = LD50 (50% lethal dose), Table 1, orally in mice

SMILES	minimal effective dose [1, 3]	LD50 at 144 h [2, 4]	minimal effective dose [1, 5]	minimal effective dose [1, 6]	LD50 at 144 h [2, 7]	therapeutic effect in experimental asthma (experimental asthma)
O=c1oc2c(O)cccc2cc1-c1nnn[nH]1 [Example 19, 8-Hydroxy-3-(1H-tetrazol-5-yl)coumarin]	25 mg/kg	2000 to 3000 mg/kg				
CCOc1cc(C)cc2cc(-c3nnn[nH]3)c(=O)oc12 [Example 20, 8-Ethoxy-6-methyl-3-(1H-tetrazol-5-yl)coumarin]		2360 mg/kg	1.56 mg/kg	1.56 mg/kg	2360 mg/kg	
CCCOc1cccc2cc(-c3nnn[nH]3)c(=O)oc12 [Example 5, 8-n-Propoxy-3-(1H-tetrazol-5-yl)coumarin]	6.25 mg/kg	2000 to 3000 mg/kg				
CCCCOc1cc(C)cc2cc(-c3nnn[nH]3)c(=O)oc12 [Example 2, 8-n-Butoxy-6-methyl-3-(1H-tetrazol-5-yl)coumarin]		1870 mg/kg	0.39 mg/kg	0.39 mg/kg	1870 mg/kg	
Cc1ccc2oc(=O)c(-c3nnn[nH]3)c(C)c2c1 [J, reference compound]			25 mg/kg		533 mg/kg	
CCCOc1ccc2cc(-c3nnn[nH]3)c(=O)oc2c1 [Example 7, 7-n-Propoxy-3-(1H-tetrazol-5-yl)coumarin]	6.25 mg/kg	2000 to 3000 mg/kg				
CC(C)Oc1cccc2cc(-c3nnn[nH]3)c(=O)oc12 [Example 6, 8-Isopropoxy-3-(1H-tetrazol-5-yl)coumarin]		2250 mg/kg	1.56 mg/kg	1.56 mg/kg	2250 mg/kg	
CCCCCCOc1cccc2cc(-c3nnn[nH]3)c(=O)oc12 [Example 10, 8-n-Hexyloxy-3-(1H-tetrazol-5-yl)coumarin]		2650 mg/kg	1.56 mg/kg	1.56 mg/kg	2650 mg/kg	shows a therapeutic effect
CCCCOc1cccc2cc(-c3nnn[nH]3)c(=O)oc12 [Example 8, 8-n-Butoxy-3-(1H-tetrazol-5-yl)coumarin]		2380 mg/kg	1.56 mg/kg	1.56 mg/kg	2380 mg/kg	
CCOc1cccc2cc(-c3nnn[nH]3)c(=O)oc12 [Example 4, 8-Ethoxy-3-(1H-tetrazol-5-yl)coumarin]		2500 mg/kg	6.25 mg/kg	6.25 mg/kg	2500 mg/kg	
CCCCCCCCCOc1cccc2cc(-c3nnn[nH]3)c(=O)oc12 [Example 12, 8-n-Nonyloxy-3-(1H-tetrazol-5-yl)coumarin]	6.25 mg/kg	2000 to 3000 mg/kg				
CCCCCCCOc1cccc2cc(-c3nnn[nH]3)c(=O)oc12 [Example 11, 8-n-Heptyloxy-3-(1H-tetrazol-5-yl)coumarin]	1.56 mg/kg	2000 to 3000 mg/kg				
COc1cc2oc(=O)c(-c3nnn[nH]3)cc2cc1CC=C(C)C [Example 28, 7-Methoxy-6-(3-methyl-2-butenyl)-3-(1H-tetrazol-5-yl)coumarin]	1.56 mg/kg	500 to 1000 mg/kg				
CCCCCOc1cccc2cc(-c3nnn[nH]3)c(=O)oc12 [Example 1, 8-n-Pentyloxy-3-(1H-tetrazol-5-yl)coumarin]		1330 mg/kg	1.56 mg/kg	1.56 mg/kg	1330 mg/kg	
Cc1cc(O)c2oc(=O)c(-c3nnn[nH]3)cc2c1 [Example 27, 8-Hydroxy-6-methyl-3-(1H-tetrazol-5-yl)coumarin]	12.5 mg/kg	2000 to 3000 mg/kg				
CCOc1cc(OCC)c2cc(-c3nnn[nH]3)c(=O)oc2c1 [Example 30, 5,7-Diethoxy-3-(1H-tetrazol-5-yl)coumarin]	12.5 mg/kg	2000 to 3000 mg/kg				
CC(C)=CCC/C(C)=C/COc1cccc2cc(-c3nnn[nH]3)c(=O)oc12 [Example 17, 8-Geranyloxy-3-(1H-tetrazol-5-yl)coumarin]	6.25 mg/kg	500 to 1000 mg/kg				
